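Grown in 96-well plates, cells were treated for 48 hours with each compound at five concentrations. Insufficient inhibition: endpoint recorded as highest concentration tested. The concentration for 50% growth inhibition is given as GI50.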 Activity calls are given as the source filed them. Rule as the data show it: active = GI50 up to about 1.1 µM and inactive = higher. A value given as a limit tells only on which side of the number the result lay.

Test systems include TK-10; Malme-3M; SNB-75; HCC 2998; 786-0; SF-268; MDA-MB-231; SF-295; T47D; OVCAR-4; HT-29; DU-145; MDA-MB-435; HOP-62; UO-31; HL-60; SK-OV-3; SN12C; U-251; SR.
Holding throughout (assay): NCI tumour cell line growth inhibition, 48 h

For `Nn1c(Cc2ccc(Cl)cc2)n[nH]c1=O`, the GI50 in the assay with TK-10, in the assay on Malme-3M, in the assay on SNB-75, in the assay with HCC 2998, with 786-0 and in the assay with SF-268 was > 100 µM (inactive) each time. Besides, the GI50 with MDA-MB-231, in the assay on SF-295, with T47D, in the assay with OVCAR-4, in the assay on HT-29 and in the assay with DU-145 was > 100 µM (inactive) each time. Also, the GI50 in the assay with MDA-MB-435 is > 100 µM (inactive); in the assay with HOP-62 it was 72.1 µM (inactive); in the assay on UO-31, 34.3 µM (inactive); in the assay with HL-60 it was > 100 µM (inactive); in the assay with SK-OV-3, > 100 µM (inactive); with SN12C, > 100 µM (inactive). In addition, the GI50 in the assay with U-251 and with SR was > 100 µM (inactive) in each case.
As to `COc1ccc2c(CCNS(=O)(=O)c3ccccc3)c(C(C)=O)[nH]c2c1`, the GI50 is > 100 µM (inactive) in the assay with TK-10; > 100 µM (inactive) in the assay with Malme-3M; 52.8 µM (inactive) in the assay with SNB-75; > 100 µM (inactive) in the assay on HCC 2998; 49.5 µM (inactive) with 786-0; 52.1 µM (inactive) in the assay with SF-268. In addition, the GI50 in the assay on MDA-MB-231 was > 85.5 µM (inactive); in the assay on SF-295, 80.4 µM (inactive); in the assay with T47D it was > 52.2 µM (inactive); in the assay with OVCAR-4 it was 51.6 µM (inactive); with HT-29 it was > 46.8 µM (inactive); with DU-145, > 80.2 µM (inactive). Further, the GI50 in the assay with MDA-MB-435 is 12.3 µM (inactive); with HOP-62, > 50.6 µM (inactive); with UO-31, 9.51 µM (inactive); in the assay on HL-60, > 75.3 µM (inactive); in the assay on SK-OV-3 it was > 80.9 µM (inactive); with SN12C, 38.5 µM (inactive). For the same molecule, the GI50 in the assay on U-251 was > 74.3 µM (inactive); in the assay with SR, 64.6 µM (inactive).
Consider `COc1cc(/C=N\O)nc(-c2ccccn2)c1`, for which the GI50 in the assay with TK-10 is > 30.8 µM (inactive); in the assay on Malme-3M, 0.741 µM (active); in the assay on SNB-75, 1.28 µM (inactive); in the assay on HCC 2998 it was 46.8 µM (inactive); in the assay on 786-0 it was 0.179 µM (active); in the assay with SF-268 it was 0.452 µM (active). Moreover, the GI50 is 1.05 µM (active) in the assay on MDA-MB-231; 0.339 µM (active) in the assay with SF-295; 1.18 µM (inactive) with T47D; 0.504 µM (active) in the assay with OVCAR-4; 0.569 µM (active) in the assay on HT-29; 0.236 µM (active) in the assay with DU-145. Moreover, the GI50 in the assay on MDA-MB-435 is 1.6 µM (inactive); in the assay with HOP-62, 0.137 µM (active); with UO-31, 0.161 µM (active); in the assay with HL-60, 0.124 µM (active); with SK-OV-3, 0.45 µM (active); with SN12C, 0.264 µM (active). The GI50 was 0.553 µM (active) with U-251 and 0.0438 µM (active) in the assay with SR.
For `COc1ccc(/C=N/Nc2nc3ccccc3c(=O)n2-c2ccccc2)cc1`, the GI50 in the assay with TK-10 is > 100 µM (inactive); in the assay on Malme-3M it was > 100 µM (inactive); with SNB-75 it was 86.5 µM (inactive); in the assay on HCC 2998, > 100 µM (inactive); with 786-0, > 100 µM (inactive); with SF-268, > 100 µM (inactive). Also, the GI50 with MDA-MB-231, in the assay on SF-295, in the assay on T47D, in the assay on OVCAR-4, in the assay with HT-29 and with DU-145 was > 100 µM (inactive) each time. For the same molecule, the GI50 in the assay with MDA-MB-435 is > 100 µM (inactive); with HOP-62 it was > 100 µM (inactive); with UO-31, 2.28 µM (inactive); in the assay with HL-60, > 100 µM (inactive); in the assay on SK-OV-3 it was > 100 µM (inactive); in the assay with SN12C it was > 100 µM (inactive). The GI50 in the assay with U-251 is > 100 µM (inactive); in the assay on SR, 60.7 µM (inactive).
Take `COc1cc2cc(C(=O)N3CC(CCl)c4c3cc(NC(=O)C(C)(C)c3ccccc3[N+](=O)[O-])c3ccccc43)[nH]c2c(OC)c1OC` (stereo not given): the GI50 in the assay on TK-10 is 8.87 µM (inactive); in the assay on Malme-3M, 7.31 µM (inactive); with SNB-75 it was 3.76 µM (inactive); with HCC 2998 it was 6.15 µM (inactive); with 786-0, 1.36 µM (inactive); with SF-268, 1.88 µM (inactive). Also, the GI50 with MDA-MB-231 was 3.03 µM (inactive); in the assay with SF-295 it was 1.67 µM (inactive); in the assay on T47D, 4.73 µM (inactive); with OVCAR-4, 3.08 µM (inactive); with HT-29, 1.6 µM (inactive); with DU-145, 0.147 µM (active). Further, the GI50 with MDA-MB-435 is 1.75 µM (inactive); in the assay on HOP-62, 0.187 µM (active); in the assay on UO-31, 0.968 µM (active); in the assay with HL-60, 1.36 µM (inactive); in the assay on SK-OV-3, 2.75 µM (inactive); in the assay with SN12C it was 4.23 µM (inactive). The figures for the GI50 in the assay with U-251 and with SR were 0.54 µM (active) and 0.192 µM (active), respectively.
On to `O=C(Nn1c(-c2ccccc2)nc2ccccc2c1=O)c1ccc(O)cc1`, for which the GI50 in the assay with TK-10, in the assay on Malme-3M, in the assay on SNB-75, with HCC 2998, in the assay on 786-0 and in the assay with SF-268 was > 100 µM (inactive) in each case. Besides, the GI50 in the assay with MDA-MB-231, with SF-295, in the assay on T47D, in the assay with OVCAR-4, in the assay with HT-29 and with DU-145 was > 100 µM (inactive) throughout. In addition, the GI50 with MDA-MB-435, in the assay on HOP-62, in the assay with UO-31, in the assay with HL-60, in the assay with SK-OV-3 and in the assay on SN12C was > 100 µM (inactive) throughout. In addition, the GI50 in the assay with U-251 and in the assay on SR was > 100 µM (inactive) each time.
Consider `CC1=NN(C(=O)c2ccccc2O)C(=O)/C1=C/c1ccccc1O`, for which the GI50 is 15.2 µM (inactive) in the assay on TK-10; 0.766 µM (active) with Malme-3M; 0.0968 µM (active) in the assay on SNB-75; 3.21 µM (inactive) in the assay on HCC 2998; 0.521 µM (active) with 786-0; 0.445 µM (active) with SF-268. Moreover, the GI50 in the assay on MDA-MB-231 was 0.381 µM (active); with SF-295, 0.0736 µM (active); in the assay on T47D, 0.225 µM (active); in the assay on OVCAR-4, 1.08 µM (active); with HT-29, 8.45 µM (inactive); in the assay with DU-145 it was 0.132 µM (active). The GI50 in the assay with MDA-MB-435 was 0.0612 µM (active); in the assay with HOP-62 it was 0.236 µM (active); with UO-31, 0.0634 µM (active); in the assay with HL-60, 0.409 µM (active); in the assay on SK-OV-3 it was 0.0815 µM (active); in the assay with SN12C, 0.579 µM (active). The GI50 was 0.114 µM (active) with U-251 and 0.251 µM (active) in the assay on SR.
With `COc1ccc2nc3ccc(OC)cc3c(SCCCl)c2c1`, the GI50 in the assay on TK-10 was > 81.5 µM (inactive); in the assay on Malme-3M, 9.57 µM (inactive); in the assay with SNB-75 it was 13.7 µM (inactive); with HCC 2998, > 45.8 µM (inactive); in the assay with 786-0, 6.24 µM (inactive); with SF-268, 12 µM (inactive). For the same molecule, the GI50 was 18.8 µM (inactive) in the assay on MDA-MB-231; 26.2 µM (inactive) with SF-295; 15.2 µM (inactive) in the assay on T47D; 12.7 µM (inactive) in the assay with OVCAR-4; 8.28 µM (inactive) in the assay on HT-29; 21 µM (inactive) in the assay with DU-145. In addition, the GI50 is 9.95 µM (inactive) in the assay with MDA-MB-435; 18.1 µM (inactive) in the assay on HOP-62; 32 µM (inactive) with UO-31; 3.28 µM (inactive) in the assay on HL-60; > 74 µM (inactive) with SK-OV-3; 12.2 µM (inactive) in the assay with SN12C. The GI50 with U-251 was 18 µM (inactive); in the assay on SR it was 4.8 µM (inactive).
With `CCOC(=O)/C=C\C(C#N)(C#N)/N=C/c1ccsc1`, the GI50 was 2.1 µM (inactive) in the assay on TK-10; 2.29 µM (inactive) in the assay on Malme-3M; 13 µM (inactive) in the assay with SNB-75; 16 µM (inactive) with HCC 2998; 2.24 µM (inactive) in the assay with 786-0; 6.75 µM (inactive) in the assay with SF-268. In addition, the GI50 is 16.3 µM (inactive) in the assay on MDA-MB-231; 29.3 µM (inactive) in the assay on SF-295; 2 µM (inactive) in the assay with T47D; 6.43 µM (inactive) in the assay with OVCAR-4; 11.1 µM (inactive) in the assay on HT-29; 16.5 µM (inactive) with DU-145. In addition, the GI50 with MDA-MB-435 was 2.39 µM (inactive); with HOP-62 it was 19.4 µM (inactive); in the assay on UO-31 it was 2.7 µM (inactive); in the assay with HL-60 it was 2 µM (inactive); in the assay on SK-OV-3, 20.8 µM (inactive); in the assay with SN12C it was 18.2 µM (inactive). Besides, the values for the GI50 in the assay with U-251 and in the assay on SR were 17.1 µM (inactive) and 1.04 µM (active), respectively.
With `CC(C)OP(=O)(OC(C)C)/C(C#N)=C/c1ccco1`, the GI50 with TK-10, in the assay with Malme-3M, with SNB-75, with HCC 2998, in the assay on 786-0 and in the assay with SF-268 was > 100 µM (inactive) each time. Besides, the GI50 in the assay with MDA-MB-231, in the assay on SF-295, in the assay with T47D, with OVCAR-4, in the assay on HT-29 and in the assay on DU-145 was > 100 µM (inactive) in each case. The GI50 in the assay on MDA-MB-435 is > 100 µM (inactive); with HOP-62 it was > 100 µM (inactive); with UO-31 it was 5.19 µM (inactive); with HL-60, > 100 µM (inactive); with SK-OV-3, > 100 µM (inactive); in the assay with SN12C it was > 100 µM (inactive). The GI50 in the assay with U-251 and in the assay on SR was > 100 µM (inactive) each time.
